{
  "source": "patent US20190021385A1",
  "about": "“ORALLY DISSOLVABLE COMPOSITIONS FOR NUTRITION SUPPLEMENTATION” (Exeltis USA, Inc., priority 2017, published 2019)",
  "origin": "cited, not measured here",
  "details": "intake of about 1000 IU per day, all adults; Bischoff-Ferrari 2008",
  "data": [
    {"smiles": "C=C1CC[C@H](O)C/C1=C/C=C1\\CCC[C@]2(C)[C@@H]([C@H](C)CCCC(C)C)CC[C@@H]12", "note": "[vitamin D3, cholecalciferol]", "values": [
      {"measurement": "share of the population brought up to the 30 ng/ml serum range for 25-hydroxyvitamin D", "value": "at least 50%"}
    ]}
  ]
}
